Measured values as given in ChEMBL document CHEMBL1201862, “PubChem BioAssay data set” (2004).
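Each compound was tested at five concentrations against cells in 96-well plates for 48 hours. GI50 = concentration required for 50% inhibition of growth.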 Activity calls are given as the source filed them. Rule as the data show it: active = GI50 up to about 1.1 µM and inactive = higher. Square brackets hold non-standard residues; d marks the D form. Peptide text beside a SMILES is read from it. pGlu = O=C1CC[CH](C(=O)O)N1

What was measured:
Assay in all cases: growth of human tumour cells (NCI), 48 h
BT-549 = system: BT-549
LXFL 529 = system: LXFL 529
SNB-78 = system: SNB-78
DMS-273 = system: DMS-273
HOP-18 = system: HOP-18
KM-20L2 = system: KM-20L2
DLD-1 = system: DLD-1
RXF 631 = system: RXF 631
XF498 = system: XF498

| SMILES | GI50 (BT-549) | GI50 (LXFL 529) | GI50 (SNB-78) | GI50 (DMS-273) | GI50 (KM-20L2) | GI50 (DLD-1) | other results |
| --- | --- | --- | --- | --- | --- | --- | --- |
| CC(NC(=O)C(Cc1c[nH]cn1)NC(=O)C1CCC(=O)N1)C(N)=O (stereo not drawn) ([pGlu]-His-Ala-NH2; configuration not given here) | > 100 µM (inactive) |  |  |  |  |  |  |
| C=C1CC(c2ccc(O)c(OC)c2)Oc2c(OC)cccc21 (stereo unspecified) |  | 26.2 µM (inactive) | 33.2 µM (inactive) | 18.3 µM (inactive) | > 100 µM (inactive) | 37 µM (inactive) | GI50 (HOP-18): > 100 µM (inactive) |
| Cc1cc2c3ccccc3n(C)c2c2c1C(=O)c1ccccc1C2=O |  | 16.9 µM (inactive) |  | 19.4 µM (inactive) |  | 14.6 µM (inactive) | GI50 (RXF 631): 21.9 µM (inactive); GI50 (XF498): 15.9 µM (inactive) |
| O=C(COc1ccc(Cl)cc1)N1N=C(c2ccc([N+](=O)[O-])o2)CC1(O)c1ccccc1 (stereo unspecified) |  |  | 13.8 µM (inactive) | 5.28 µM (inactive) | 12.3 µM (inactive) | 4.66 µM (inactive) | GI50 (RXF 631): 7.87 µM (inactive); GI50 (XF498): 10.5 µM (inactive) |
| COc1cc2cc(c1Cl)N(C)C(=O)C[C@H](OC(=O)[C@H](C)N(C)C(C)=O)[C@]1(C)O[C@H]1[C@H](C)[C@@H]1C[C@@](O)(NC(=O)O1)[C@H](OC)/C=C/C=C(/C)C2 | 0.334 µM (active) | 0.01 µM (active) | 0.025 µM (active) | 0.01 µM (active) | 0.0308 µM (active) | 0.025 µM (active) | GI50 (HOP-18): 0.695 µM (active); GI50 (XF498): 0.0628 µM (active) |
| CN(C)c1ccc(/C=C(\NC(=O)c2ccccc2)C(=O)Nc2ccccc2C(=O)NCc2ccccc2)cc1 | > 100 µM (inactive) |  |  |  |  |  |  |
| C/C(CN1C(=O)c2ccccc2C1=O)=N\NS(=O)(=O)c1ccc(F)cc1 |  | > 100 µM (inactive) | > 100 µM (inactive) | > 100 µM (inactive) | > 100 µM (inactive) | > 100 µM (inactive) | GI50 (HOP-18): > 100 µM (inactive); GI50 (XF498): > 100 µM (inactive) |
| COC(=O)C(C(=O)C(=O)Nc1c(Cl)cc([N+](=O)[O-])cc1Cl)c1nc2cc(C)c(C)cc2nc1O (stereo unspecified) |  | > 100 µM (inactive) | > 100 µM (inactive) | > 100 µM (inactive) | > 100 µM (inactive) | > 100 µM (inactive) | GI50 (HOP-18): 72.6 µM (inactive); GI50 (RXF 631): > 100 µM (inactive) |
| Cc1cc(S(=O)(=O)Nc2nc(N)n[nH]2)c(Cl)cc1Cl | > 10 µM (inactive) |  |  |  |  |  |  |
| CN(C)CCn1c2ccccc2c2nc3cc4ccccc4cc3nc21 |  | 4.95 µM (inactive) |  | 3.13 µM (inactive) | 3.3 µM (inactive) | 3.81 µM (inactive) | GI50 (XF498): 7.66 µM (inactive) |
| NNC(=S)N/N=C(/C(=O)Nc1cc(Cl)ccc1Cl)C1C(=O)Nc2ccccc2[S+]1[O-] (stereo unspecified) |  | > 100 µM (inactive) | > 100 µM (inactive) |  | > 100 µM (inactive) | > 100 µM (inactive) | GI50 (HOP-18): > 100 µM (inactive); GI50 (XF498): > 100 µM (inactive) |
| CCN1CCC(O)(c2ccc(OC)cc2)C(C(=O)c2ccc(OC)cc2)C1 (stereo unspecified) |  | 20 µM (inactive) | 26.1 µM (inactive) | 22.8 µM (inactive) | 18.6 µM (inactive) | 16.9 µM (inactive) | GI50 (RXF 631): 21.5 µM (inactive); GI50 (XF498): 17.6 µM (inactive) |
| CC(C)(C)C#CI1OC(=O)c2ccccc21 | 3.16 µM (inactive) |  |  |  |  |  |  |
| COC(=O)C(NC(=O)CNC(=O)CSc1nnc(COc2ccc(Cl)cc2)n1-c1ccccc1)C(C)C (stereo unspecified) | 18.5 µM (inactive) |  |  |  |  |  |  |
| Cc1n[nH]c(=O)n1/N=C\c1ccccc1 | > 100 µM (inactive) |  |  |  |  |  |  |
| CC(=O)/N=C1\NC(=O)/C(=C/c2ccc(Cl)cc2Cl)N1C | 87.7 µM (inactive) |  |  |  |  |  |  |
| O=C1CSCc2sccc21 | > 100 µM (inactive) |  |  |  |  |  |  |
| CN(C)c1c([O-])c(=[N+](C)C)c1=O |  | > 100 µM (inactive) | > 100 µM (inactive) | > 100 µM (inactive) |  |  | GI50 (XF498): > 100 µM (inactive) |
| CC(C)(CN1CCCCC1)C(/C=C/c1ccc(Cl)c(Cl)c1)=N\NC(=O)N/N=C(/C=C/c1ccc(Cl)c(Cl)c1)C(C)(C)CN1CCCCC1 | > 10 µM (inactive) |  |  |  |  |  |  |
| C[C@H]1CCC2C(CN3CCCCC3)C(=O)OC2[C@]2(C)C(=O)CC(N3CCCCC3)C12O (stereo partly specified) |  |  | 4.41 µM (inactive) | 3.57 µM (inactive) | 7.91 µM (inactive) | 3.34 µM (inactive) | GI50 (HOP-18): 29 µM (inactive); GI50 (RXF 631): 1.28 µM (inactive) |
| Cc1ccc([N+](=O)[O-])cc1S(=O)(=O)Nc1ccc(C2=NN(c3ccc([N+](=O)[O-])cc3[N+](=O)[O-])C(c3cccs3)C2)cc1 (stereo unspecified) | 20.7 µM (inactive) |  |  |  |  |  |  |
| CC(O)C1(CNc2cc(Cl)nc(N)n2)CCCC1 (stereo unspecified) | > 100 µM (inactive) |  |  |  |  |  |  |
| O=C1CSC(c2c[nH]c3ccccc23)N1c1cccc([N+](=O)[O-])c1 (stereo unspecified) | > 100 µM (inactive) |  |  |  |  |  |  |
| COC(=O)[C@@H](NC(=O)N(Cc1ccccc1)C[C@H](CC(C)C)NC(=O)[C@@H](NC(=O)OC(C)(C)C)C(C)C)C(C)C | > 100 µM (inactive) |  |  |  |  |  |  |
| Oc1c(CN2CCOCC2)ccc2cccnc12 | 1.51 µM (inactive) |  |  |  |  |  |  |
| O=C(O)CN1CCNCCN(CC(=O)O)CCNCC1 | > 85.5 µM (inactive) |  |  |  |  |  |  |
| CCN(CC)c1ccc2cc(C(N)=O)/c(=N/c3ccc(F)cc3)oc2c1 | > 100 µM (inactive) |  |  |  |  |  |  |
| CN(C)c1ccc(C(=N/N=C2\C(=O)Nc3ccccc32)c2ccc(N(C)C)cc2)cc1 | 0.938 µM (active) |  |  |  |  |  |  |
| CCC(C)OC(=O)/C(Br)=C1/OC(=O)c2ccccc2-c2ccccc21 (stereo unspecified) | 18.8 µM (inactive) |  |  |  |  |  |  |
| CCCCCCCC/C=C\CCCCCCC/C=C1/C[C@](/C=C/C(=O)OC)(CO)OC1=O | 5.02 µM (inactive) |  |  |  |  |  |  |
